Assay: mn = molality of the nth substance listed, in mol/kg
Conditions: 101 kPa, Liquid; for mass density: Vibrating tube method

CC(C)C[C@H](N)C(=O)O [L-leucine] + O
speed of sound [m/s], Sing-around technique in a fixed-path interferometer
Conditions | m1 = 0.01941 | m1 = 0.02155 | m1 = 0.0281 | m1 = 0.03296 | m1 = 0.04083 | m1 = 0.05231 | m1 = 0.06632 | m1 = 0.07033
288.15 K | – | 1468.6 | 1469.5 | 1470.1 | 1471.1 | – | 1474.4 | 1475
298.15 K | 1498.8 | – | 1499.9 | 1500.5 | – | 1502.7 | 1504.4 | –
308.15 K | – | – | – | 1523.2 | 1524.1 | 1525.2 | 1526.7 | 1527.1
318.15 K | – | – | 1539.1 | 1539.5 | 1540.2 | 1541.3 | 1542.6 | 1543

Conditions | viscosity [mPa·s]
288.15 K, m1 = 0.01977 | 1.151
288.15 K, m1 = 0.02401 | 1.153
288.15 K, m1 = 0.03189 | 1.158
288.15 K, m1 = 0.04067 | 1.163
288.15 K, m1 = 0.04511 | 1.166
288.15 K, m1 = 0.0503 | 1.169
298.15 K, m1 = 0.02228 | 0.9009
298.15 K, m1 = 0.03694 | 0.9076
298.15 K, m1 = 0.04045 | 0.9094
298.15 K, m1 = 0.05353 | 0.9156
298.15 K, m1 = 0.06724 | 0.9222
298.15 K, m1 = 0.08113 | 0.928
308.15 K, m1 = 0.0193 | 0.7262
308.15 K, m1 = 0.02231 | 0.7271
308.15 K, m1 = 0.03116 | 0.7301
308.15 K, m1 = 0.03988 | 0.7332
308.15 K, m1 = 0.04441 | 0.7347
308.15 K, m1 = 0.05005 | 0.7366
318.15 K, m1 = 0.01898 | 0.6012
318.15 K, m1 = 0.02214 | 0.602
318.15 K, m1 = 0.03098 | 0.6043
318.15 K, m1 = 0.03968 | 0.6064
318.15 K, m1 = 0.04439 | 0.6076
318.15 K, m1 = 0.04995 | 0.6092

CC(C)[C@H](N)C(=O)O [L-valine] + O
speed of sound [m/s], Sing-around technique in a fixed-path interferometer
Conditions | m1 = 0.0197 | m1 = 0.03559 | m1 = 0.04365 | m1 = 0.05244 | m1 = 0.0586 | m1 = 0.07142 | m1 = 0.08303
288.15 K | – | 1469.6 | 1470.5 | 1471.4 | 1472 | 1473.4 | 1474.6
298.15 K | – | 1500.1 | 1500.9 | 1501.7 | 1502.3 | 1503.6 | 1504.7
308.15 K | – | 1523 | 1523.8 | 1524.6 | 1525.1 | 1526.3 | 1527.3
318.15 K | 1538.1 | – | 1540 | 1540.7 | 1541.2 | 1542.3 | 1543.2

Conditions | viscosity [mPa·s]
288.15 K, m1 = 0.02209 | 1.15
288.15 K, m1 = 0.03342 | 1.157
288.15 K, m1 = 0.04176 | 1.161
288.15 K, m1 = 0.04553 | 1.163
288.15 K, m1 = 0.0505 | 1.166
288.15 K, m1 = 0.05576 | 1.169
298.15 K, m1 = 0.02235 | 0.8987
298.15 K, m1 = 0.03324 | 0.9027
298.15 K, m1 = 0.04271 | 0.9064
298.15 K, m1 = 0.04775 | 0.9082
298.15 K, m1 = 0.05319 | 0.9101
298.15 K, m1 = 0.05741 | 0.9118
308.15 K, m1 = 0.02114 | 0.7258
308.15 K, m1 = 0.03147 | 0.7288
308.15 K, m1 = 0.04157 | 0.7319
308.15 K, m1 = 0.04549 | 0.7331
308.15 K, m1 = 0.04791 | 0.7337
308.15 K, m1 = 0.05464 | 0.7358
318.15 K, m1 = 0.02149 | 0.6014
318.15 K, m1 = 0.03166 | 0.6038
318.15 K, m1 = 0.04179 | 0.6061
318.15 K, m1 = 0.04524 | 0.6068
318.15 K, m1 = 0.0474 | 0.6073
318.15 K, m1 = 0.05407 | 0.609

[Cl][Cd][Cl] [cadmium chloride] + O
Conditions | mass density [kg/m3] | speed of sound [m/s] | viscosity [mPa·s]
288.15 K, m1 = 0.1 | 1015.69 | 1479 | 1.144
288.15 K, m1 = 0.5 | 1077.05 | 1484 | 1.223
288.15 K, m1 = 1 | 1149.37 | 1492.8 | 1.334
288.15 K, m1 = 1.5 | 1205.71 | 1496.2 | 1.472
298.15 K, m1 = 0.1 | 1012.89 | 1501.6 | 0.926
298.15 K, m1 = 0.5 | 1072.65 | 1507.2 | 1.036
298.15 K, m1 = 1 | 1140.72 | 1511.4 | 1.16
298.15 K, m1 = 1.5 | 1199.85 | 1514.4 | 1.226
308.15 K, m1 = 0.1 | 1009.59 | 1522.4 | 0.7258
308.15 K, m1 = 0.5 | 1068.5 | 1525.2 | 0.8259
308.15 K, m1 = 1 | 1135.37 | 1527.4 | 0.9138
308.15 K, m1 = 1.5 | 1193.02 | 1530.2 | 0.9824
318.15 K, m1 = 0.1 | 1005.51 | 1538.6 | 0.6097
318.15 K, m1 = 0.5 | 1063.8 | 1541.8 | 0.6739
318.15 K, m1 = 1 | 1129.17 | 1543.2 | 0.7467
318.15 K, m1 = 1.5 | 1186 | 1546.2 | 0.8197

O [water] + [Cl][Cd][Cl]
m2 = 0
Conditions | viscosity [mPa·s]
288.15 K | 1.138
298.15 K | 0.8903
308.15 K | 0.7195
318.15 K | 0.5963
